# Settings: not given
Structure (SMILES),boiling point [°C],log10 vapour pressure (mmHg),melting point [°C],ready biodegradability,log10 Koc (L/kg),log10 Henry constant (atm·m³/mol),log10 biodegradation half-life (days),log10 Koa
CNNC,81,1.84,-9,–,–,–,–,–
Nc1ncnc(Nc2ccccc2)n1,–,–,236,–,–,–,–,–
COc1ccc2c3c1O[C@H]1C(=O)CC[C@@]4(O)[C@@H](C2)N(C)CC[C@]314,–,–,219,–,–,–,–,–
CCCCCCCCCCCO,243,-2.53,19,readily biodegradable,–,–,–,–
Cc1cc(=O)[nH]c(=S)[nH]1,–,–,–,–,2.14,–,–,–
O=[N+]([O-])c1ccc(Cl)c(C(F)(F)F)c1,232,–,22,–,–,–,–,–
O=C(CCl)Oc1ccccc1,232,–,44.5,–,–,–,–,–
C#CCCC(=O)O,–,–,57.7,–,–,–,–,–
O=c1n(CC2CO2)c(=O)n(CC2CO2)c(=O)n1CC1CO1 (configuration not stated),–,–,–,not readily biodegradable,–,–,–,–
C=CC12CN(C)C3C4COC(CC41)[C@]1(C(=O)Nc4ccccc41)C32 (some centres not stated),–,–,178,–,–,–,–,–
CC(C)(c1cc(Br)c(OCC(Br)CBr)c(Br)c1)c1cc(Br)c(OCC(Br)CBr)c(Br)c1 (configuration not stated),–,–,–,not readily biodegradable,–,–,–,–
C[C@@H](CO)NC(=O)[C@@H]1C=C2c3cccc4[nH]cc(c34)C[C@H]2N(C)C1,–,–,162,–,–,–,–,–
CCCC(O)CC (configuration not stated),–,–,–,not readily biodegradable,–,–,–,–
CC(C)CCI,147,–,–,–,–,–,–,–
O=[N+]([O-])c1cccc(CBr)c1,–,–,59.3,–,–,–,–,–
CC(C)N1C(=O)c2ccccc2NS1(=O)=O,–,–,138,–,1.52,–,–,–
Brc1cc(Br)c(Br)s1,260,–,29,–,–,–,–,–
CNOC,–,2.58,–,–,–,–,–,–
FC(F)(F)C(F)(F)C(F)(F)C(F)(F)C(F)(F)C(F)(F)C(F)(F)C(F)(F)C(F)(F)F,123,–,-16,–,–,–,–,–
COC(=O)c1ccc(C)cc1O,243,–,27.5,–,–,–,–,–
O=C(O)c1ccc2c(c1)C(=O)OC2=O,390,-5.01,162,readily biodegradable,–,–,–,–
CSc1nnc(C(C)(C)C)c(=O)n1/N=C/C(C)C,–,-6.46,159,–,–,–,–,–
Cc1cc(C)c(O)c(C(C)(C)C)c1,249,-1.35,22.3,not readily biodegradable,–,–,–,–

Structure (SMILES),boiling point [°C],log10 vapour pressure (mmHg),melting point [°C],ready biodegradability,log10 Koc (L/kg),log10 Henry constant (atm·m³/mol),log10 biodegradation half-life (days),log10 Koa
CC/C=C\CCO,–,–,–,readily biodegradable,–,–,–,–
CNc1ccccc1,196,-0.344,-57,not readily biodegradable,2.28,-5.05,–,–
CC1=CCC2C(=O)OC(=O)C2C1 (configuration not stated),–,–,–,not readily biodegradable,–,–,–,–
CC(Cl)(Cl)C(Cl)Cl,153,–,–,–,–,–,–,–
CCC(c1ccc(O)c(C)c1)C(CC)c1ccc(O)c(C)c1 (configuration not stated),–,–,145,–,–,–,–,–
CCCCC(=O)CC,147,0.415,-39,–,–,–,–,–
COc1cc(Cl)c(Cl)cc1O,–,-2.35,–,–,–,–,–,–
Oc1cc(Cl)c(Cl)c(Cl)c1Cl,–,–,116,–,4.12,–,–,–
Brc1ccc2c(c1)Oc1ccc(Br)cc1O2,–,-5.95,193,–,–,–,–,–
Clc1ccc(I)cc1,227,-1.23,57,–,–,–,–,–
O=c1oc2ccccc2c(O)c1C1CC(c2ccc(-c3ccc(Br)cc3)cc2)Cc2ccccc21 (configuration not stated),–,–,230,–,–,–,–,–
CC(C)(C)OC(=O)CCl,150,–,–,–,–,–,–,–
CNc1ccc(C)cc1,210,–,–,–,–,–,–,–
Cc1nc2ccc([N+](=O)[O-])cc2[nH]1,–,–,224,–,–,–,–,–
CC(O)CN(CC(C)O)CC(C)O (configuration not stated),305,–,45,not readily biodegradable,–,–,–,–
C=C1COC2(OCCCO2)OC1,–,–,–,not readily biodegradable,–,–,–,–
NNc1nncc2ccccc12,–,–,172,–,–,–,–,–
Cc1c(F)c(F)c(F)c(F)c1F,118,–,-29.8,–,–,–,–,–
Nc1ccccc1C(F)(F)F,187,–,35.5,–,–,–,–,–
CCSCCSCC,217,–,180,–,–,–,–,–
CCN=C=O,60,–,–,–,–,–,–,–
CCOC(=O)C(C)C,110,1.4,-88.2,–,–,–,–,–
Cc1cccc2ccccc12,245,-1.17,-30.4,not readily biodegradable,3.36,-3.29,0.962,–

Structure (SMILES),boiling point [°C],log10 vapour pressure (mmHg),melting point [°C],ready biodegradability,log10 Koc (L/kg),log10 Henry constant (atm·m³/mol),log10 biodegradation half-life (days),log10 Koa
Clc1c(Cl)c(Cl)c2c(oc3ccccc32)c1Cl,–,–,169,–,–,–,–,–
Cc1cccc2cc3ccccc3cc12,–,–,85.5,–,–,–,–,–
CC(C)C(C)C,57.9,2.37,-129,–,–,–,–,–
C[C@H]1CC[C@@H]2[C@@H](C)[C@H]3[C@H](C[C@H]4[C@@H]5CC=C6C[C@@H](O)CC[C@]6(C)[C@H]5CC[C@]34C)N2C1,–,–,218,–,–,–,–,–
CCC(C)C(O)C(C)CC (configuration not stated),186,–,–,–,–,–,–,–
ClCc1ccccc1CCl,240,–,55,–,–,–,–,–
C#C,-84.7,4.56,-80.7,–,–,–,–,–
O=CC(=O)O,–,–,–,readily biodegradable,–,–,–,–
C=C(C)C(=O)OC,100,1.59,-48,readily biodegradable,–,–,–,–
COC(CCl)OC,128,–,–,–,–,–,–,–
Cc1cc(F)ccc1N,–,–,14.2,–,–,–,–,–
CCOC(=O)CC(=O)C(C)C,173,–,-9,–,–,–,–,–
O=c1cc(-c2ccccc2)oc2cc(O)ccc12,–,–,246,–,–,–,–,–
O=C(O)c1ccccc1C(=O)O,–,-6.2,–,readily biodegradable,1.07,–,–,–
O=C(O)c1ccc(Cl)cc1Cl,–,–,164,not readily biodegradable,–,–,–,–
CCOc1ccc2ccccc2c1C=O,–,–,115,–,–,–,–,–
CNC1(c2ccccc2Cl)CCCCC1=O (configuration not stated),–,–,92.5,–,–,–,–,–
ON=C1CCCC1,196,–,57.8,–,–,–,–,–
CC(C)COC(=O)C(=O)OCC(C)C,229,–,–,–,–,–,–,–
CCOC(=O)c1c[nH]c(=S)[nH]c1=O,–,–,252,–,–,–,–,–
O=S1(=O)OCC2C(CO1)C1(Cl)C(Cl)=C(Cl)C2(Cl)C1(Cl)Cl (configuration not stated),–,-6.55,182,–,–,–,–,–
CC(c1ccccc1)C(C)(C)O (configuration not stated),197,–,46,–,–,–,–,–
CC(N)=S,–,–,116,not readily biodegradable,0.78,–,–,–

Structure (SMILES),boiling point [°C],log10 vapour pressure (mmHg),melting point [°C],ready biodegradability,log10 Koc (L/kg),log10 Henry constant (atm·m³/mol),log10 biodegradation half-life (days),log10 Koa
CC(=O)NO,–,–,90.5,–,–,–,–,–
CCOC(=O)C(Br)C(C)C (configuration not stated),186,–,–,–,–,–,–,–
CC(C)c1cccc(C(C)C)c1,203,-0.406,-63.1,–,–,–,–,–
CCN1CCN(C(=O)N[C@@H](C(=O)N[C@@H]2C(=O)N3C(C(=O)O)=C(CSc4nnnn4C)CS[C@H]23)c2ccc(O)cc2)C(=O)C1=O,–,–,169,–,–,–,–,–
NC(=O)c1ccccc1,290,–,129,–,1.46,-9.61,–,–
NC(=O)OCCCc1ccccc1,–,–,102,–,–,–,–,–
C#CC(C)(C)NC(=O)c1ccc(C)cc1,–,–,–,–,1.76,–,–,–
C=CC(OCC)OCC,124,–,–,–,–,–,–,–
Clc1cc(Cl)c(-c2c(Cl)ccc(Cl)c2Cl)cc1Cl,–,-5.07,–,–,5.79,–,–,9.27
CC(=O)c1ccc(O)cc1C,313,–,128,–,–,–,–,–
CON=O,-12,–,-16,–,–,–,–,–
COc1ccc2[nH]cc(CCNC(C)=O)c2c1,–,–,117,–,–,–,–,–
O=C(OCCO)c1ccc(C(=O)OCCO)cc1,–,–,–,readily biodegradable,–,–,–,–
COC(=O)[C@@H](C)N(C(=O)c1ccccc1)c1ccc(F)c(Cl)c1,–,-5.12,–,–,–,–,–,–
C#CC(C)(C)NC(=O)c1ccc(Br)cc1,–,–,–,–,2.01,–,–,–
N#Cc1ccc(OC(F)(F)F)cc1,192,–,–,–,–,–,–,–
CCCS,67.8,2.19,-113,–,–,-2.39,–,–
Nc1ccc(Cl)nc1Cl,–,–,119,–,–,–,–,–
CCOc1ccccc1NC(C)=O,–,–,79,–,–,–,–,–
Cc1ncc(CO)c(N)n1,–,–,198,–,–,–,–,–
CC(=O)Oc1ccccc1C(=O)O,–,-4.6,135,readily biodegradable,–,–,–,–
COC(=O)C(C)N(C(=O)Cc1ccccc1)c1c(C)cccc1C (configuration not stated),–,-5,79,–,3.54,–,–,–
Oc1c(I)cc(I)c2cccnc12,–,–,210,–,–,–,–,–

Structure (SMILES),boiling point [°C],log10 vapour pressure (mmHg),melting point [°C],ready biodegradability,log10 Koc (L/kg),log10 Henry constant (atm·m³/mol),log10 biodegradation half-life (days),log10 Koa
CCCCCN1C(=O)c2ccc([N+](=O)[O-])cc2C1=O,–,–,–,readily biodegradable,–,–,–,–
O=[N+]([O-])c1ccc(Oc2c(Cl)cc(Cl)cc2Cl)cc1,–,–,106,not readily biodegradable,3.9,–,–,–
CC(C)(C)C(=O)OCC(=O)[C@@]1(O)CC[C@H]2[C@@H]3CCC4=CC(=O)C=C[C@]4(C)[C@H]3[C@@H](O)C[C@@]21C,–,–,233,–,–,–,–,–
CCS(=O)(=O)CC,248,–,73.5,–,–,–,–,–
O=C(O)CCCCCCCC(=O)O,–,-7.97,106,–,–,–,–,–
C=C[C@@]1(C)C=C2CC[C@@H]3[C@](C)(CCC[C@@]3(C)C(=O)O)[C@H]2CC1,–,–,218,–,–,–,–,–
FCCF,30.7,2.79,–,–,–,–,–,–
CC(=O)Oc1ccc(C(c2ccc(OC(C)=O)cc2)c2ccccn2)cc1,–,–,134,–,–,–,–,–
Clc1ccc(Cl)cc1,174,0.24,52.1,not readily biodegradable,2.65,-2.62,–,4.46
ClC=C(Cl)CCl,142,0.643,–,–,–,–,–,–
OCCC(F)(F)C(F)(F)C(F)(F)C(F)(F)C(F)(F)C(F)(F)C(F)(F)C(F)(F)F,–,–,–,not readily biodegradable,–,–,–,–
Oc1ccc(O)c(Cc2ccccc2)c1,–,–,106,–,–,–,–,–
FC(F)(F)F,-128,5.24,-184,–,–,0.712,–,-0.95
CCCCCCCC/C=C\CCCCCCCC(=O)OCC,–,–,-13.1,–,–,–,–,–
O=C1C(O)=C(C2CCCCC2)C(=O)c2ccccc21,–,–,136,–,–,–,–,–
C/C=C/C#N,–,–,-51.5,–,–,–,–,–
CC1CCCO1 (configuration not stated),78,1.99,–,–,–,-4.03,–,–
CCCCCCCCCCCCC/C=C/[C@@H](O)[C@@H](N)CO,–,–,67,–,–,–,–,–
O=[N+]([O-])c1ccc(-c2ccccc2[N+](=O)[O-])cc1,–,–,93.5,–,–,–,–,–
CCCCOC(=O)C(=O)[C@H]1[C@H](C)C[C@H]2[C@@H]3C[C@H](F)C4=CC(=O)C=C[C@]4(C)[C@H]3[C@@H](O)C[C@@]21C,–,–,195,–,–,–,–,–
CC(C)(C)N,45,2.57,-72.7,not readily biodegradable,–,–,–,–

# Same assay, conditions: fish
Structure (SMILES),log10 BCF,log10 biotransformation half-life (days)
CNc1ccccc1,1,-0.88
COc1cc(Cl)c(Cl)cc1O,2.03,-0.15
CC(=CC(C)C)CC(C)C,–,0.92
CC(O)CN(CC(C)O)CC(C)O (configuration not stated),-0.24,–
Cc1cccc2ccccc12,1.73,–
CC(C)c1cccc(C(C)C)c1,3.28,0.56
Clc1cc(Cl)c(Oc2cc(Cl)c(Cl)cc2Cl)c(Cl)c1,–,2.01
ClC1=C(Cl)C2(Cl)C3CC(Cl)(Cl)CC3C1(Cl)C2(Cl)Cl (configuration not stated),4.3,2.23
O=[N+]([O-])c1ccc(Oc2c(Cl)cc(Cl)cc2Cl)cc1,3.31,0.75
Clc1cc(Cl)c(Oc2cc(Cl)c(Cl)cc2Cl)cc1Cl,–,1.98
C=C[C@@]1(C)C=C2CC[C@@H]3[C@](C)(CCC[C@@]3(C)C(=O)O)[C@H]2CC1,1.92,–
Clc1ccc(Cl)cc1,2.62,1.1

# Reference: the OPERA property sets (Mansouri et al. 2018)
